Measured values published in ChEMBL document CHEMBL5608141, “Identification of compartment-specific drug sensitivities in CRC organoid-stroma co-cultures” (2024).

Key:
Type in all cases: functional, Homo sapiens
Design in all cases: dose or concentration left out as unconfirmed
Colon cancer organoid [1] = experiment: Identification of compartment-specific drug sensitivities in O20 CRC organoid-stroma F20 CAF co-cultures. Organoid is transduced with Lucferase2-P2A-EGFP lentivirus, fibroblast with Renilla-dsRed lentivirus. Dual-Glo Luciferase assay is used to report viability data.
Colon cancer organoid [2] = experiment: Identification of compartment-specific drug sensitivities in O14 CRC organoid-stroma F14 CAF co-cultures. Organoid is transduced with Lucferase2-P2A-EGFP lentivirus, fibroblast with Renilla-dsRed lentivirus. Dual-Glo Luciferase assay is used to report viability data.
Colon cancer organoid [3] = experiment: Identification of compartment-specific drug sensitivities in O06 CRC organoid-stroma F06 CAF co-cultures. Organoid is transduced with Lucferase2-P2A-EGFP lentivirus, fibroblast with Renilla-dsRed lentivirus. Dual-Glo Luciferase assay is used to report viability data.
[4] = Transduced with Lucferase2-P2A-EGFP lentivirus
[5] = Transduced with Renilla-dsRed lentivirus

SMILES	Cell Viability (Colon cancer organoid [1]; [4]) [%]	Cell Viability (Colon cancer organoid [1]; [5]) [%]	Cell Viability (Colon cancer organoid [2]; [4]) [%]	Cell Viability (Colon cancer organoid [2]; [5]) [%]	Cell Viability (Colon cancer organoid [3]; [4]) [%]	Cell Viability (Colon cancer organoid [3]; [5]) [%]
CCOc1cc(N2CCC(O)CC2)ccc1Nc1ncc2c(n1)N(C1CCCC1)CCC(=O)N2C	51.7552	144.517	84.5477	160.888	80.3618	151.464
CN(C)[C@H]1CN(C2CCc3cccc(F)c32)C[C@@H]1c1ccc(N2CCN(S(C)(=O)=O)CC2)cc1 (stereo not given in full)	31.9931	145.189	77.8807	109.764	82.1891	127.07
O=C(NCc1ncc(C(F)(F)F)cc1Cl)c1ccc2c(c1)C1(CCS(=O)(=O)CC1)[C@@H](C1CC1)N2S(=O)(=O)c1ccc(F)cc1 [BAY-786]	102.274	106.984	85.8201	92.0831	81.2723	52.1511
CCN(CC)S(=O)(=O)Nc1cccc(-c2ccc3c(NC(=O)C4CC4)n[nH]c3c2)c1	76.1767	136.148	139.261	96.9304	76.8554	107.031
Cn1cc(C2=C(c3cn(C4CCN(Cc5ccccn5)CC4)c4ccccc34)C(=O)NC2=O)c2ccccc21 [ENZASTAURIN]	54.6044	78.6109	80.1065	85.9175	65.6638	92.7001
CC(C)(C)OC(=O)N1CCCC1CNC1CCC(c2cc(F)ccc2F)(S(=O)(=O)c2ccc(Cl)cc2)CC1 (stereo not given) [GSI-NC]	93.8933	100.789	112.017	95.5535	96.8575	78.4593
O=C(CNCc1cc2ccccc2[nH]1)N[C@H]1CC[C@@H](c2nc3ccccc3[nH]2)CC1	100.403	124.153	106.264	107.393	85.8975	91.436
COc1cc2c(cc1-c1c(C)noc1C)ncc1[nH]c(=O)n([C@H](C)c3ccccn3)c12	26.1265	172.215	55.7493	184.963	43.5488	325.273
O=C(NCCN1CCOCC1)c1ccc2c(c1)C(=O)c1ccc(Nc3ccc(F)c(NC(=O)c4ccccc4)c3)cc1CC2 [FS-694]	66.3241	119.038	121.73	92.4198	67.8661	67.282
Cc1cnc(Nc2ccc(F)cc2Cl)nc1-c1c[nH]c(C(=O)N[C@H](CO)c2cccc(Cl)c2)c1	6.88	113.857	47.0783	28.0153	51.8597	63.6391
CNCCN1CCC(OCc2ccccc2)CC1	15.2261	211.667	40.9856	114.707	118.085	144.179
C=CC(=O)Nc1ccc2[nH]c(=O)n(C3CCN(Cc4ccc(-c5nc6cc[nH]c(=O)c6cc5-c5ccccc5)cc4)CC3)c2c1 [Borussertib]	47.6492	149.193	60.6786	71.4907	51.8578	132.383
Cc1noc([C@H]2C[C@@H](c3ccc(C(F)(F)F)cc3)CN(C(=O)N3CCS(=O)(=O)C3)C2)n1 [BAY-448]	115.252	84.5218	114.601	94.3368	64.3289	114.596
O=C(Nc1cccnn1)N1CCC(=Cc2cccc(Oc3ccc(C(F)(F)F)cn3)c2)CC1	75.4997	114.419	96.3845	120.944	103.919	125.543
CCC(=N\O)/C(C)=C/c1ccc(F)c(C)c1 [A-226]	93.31	115.263	131.471	101.092	127.527	100.08
